Counter-ions that a name gives are not always drawn.
Biological target: T1, human α2C receptor (Homo sapiens, UniProt P18825)
T1 construct: expressed in transfected cells; host or cells: CHO cells, also recombinantly expressing chimeric G protein Gαqi3 and mitochondrial obelin (mtOb)
T1 sequence (P18825 1-462): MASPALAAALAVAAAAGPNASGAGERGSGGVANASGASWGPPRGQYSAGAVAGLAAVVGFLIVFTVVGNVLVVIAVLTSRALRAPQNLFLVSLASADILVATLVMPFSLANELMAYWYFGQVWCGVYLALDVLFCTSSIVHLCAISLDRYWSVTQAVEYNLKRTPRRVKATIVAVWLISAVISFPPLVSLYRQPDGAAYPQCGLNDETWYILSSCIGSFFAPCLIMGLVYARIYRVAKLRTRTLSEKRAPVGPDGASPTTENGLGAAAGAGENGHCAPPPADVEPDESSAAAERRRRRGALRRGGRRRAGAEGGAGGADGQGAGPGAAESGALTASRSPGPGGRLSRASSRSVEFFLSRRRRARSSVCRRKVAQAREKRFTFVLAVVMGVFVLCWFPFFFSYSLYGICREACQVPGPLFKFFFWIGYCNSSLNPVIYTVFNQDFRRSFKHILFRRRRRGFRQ
Assay: Antagonism against the adrenoreceptor α2C (luminescence, recombinant CHO cell line)
Type: cell-based
Conditions: antagonism against adrenoreceptor α2C; noradrenaline 20 nM; tested up to 10 μM; read-out: IC50
Experimental: Antagonism against the adrenoreceptor α1A was tested using a recombinant human α1A receptor CHO cell line which additionally also recombinantly expresses mtAeq (mitochondrial aequorin). Antagonism against the adrenoreceptor α2A was tested using a recombinant human α2A-Gα16 receptor fusion protein CHO cell line (PerkinElmer Life Sciences) which additionally also recombinantly expresses mtAeq. Antagonism against the adrenoreceptor α2B was tested using a recombinant human α2B receptor CHO cell line (PerkinElmer Life Sciences) which additionally also recombinantly expresses mtAeq. Antagonism against the adrenoreceptor α2C was tested using a recombinant human α2C receptor CHO cell line which additionally also recombinantly expresses a chimaric G protein (Gαqi3) and mtOb (mitochondrial obelin).
The cells were cultivated at 37° C. and 5% CO2 in Dulbecco's modified Eagle's Medium/NUT mix F12 with L-glutamine which additionally contains 10% (v/v) inactivated foetal calf serum, 1 mM sodium pyruvate, 0.9 mM sodium bicarbonate, 50 U/ml penicillin, 50 μg/ml streptomycin, 2.5 μg/ml amphotericin B and 1 mg/ml Geneticin. The cells were passaged with enzyme-free Hank's-based cell dissociation buffer. All cell culture reagents used are from Invitrogen (Carlsbad, USA).
Luminescence measurements were carried out on white 384-well microtitre plates. 2000 cells/well were plated in a volume of 25 μl and cultivated for one day at 30° C. and 5% CO2 in cell culture medium with coelenterazine (α2A and α2B: 5 μg/ml; α1a/c and α2C: 2.5 μg/ml). Serial dilutions of the test substances (10 μl) were added to the cells. After 5 minutes, noradrenalinee was added to the cells (35 μl; final concentrations: 20 nM (α1a/c and α2C) or 200 nM (α2A and α2B)), and the emitted light was measured for 50 seconds using a CCD (charge-coupled device) camera (Hamamatsu Corporation, Shizuoka, Japan) in a light-tight box. The test substances were tested up to a maximum concentration of 10 μM. The IC50 values were calculated from the appropriate dose-response curves.

SMILES	IC50 [nM]
CCOC[C@@H]1CCCN(C2CCN(C(=O)c3ccc(C(C)(C)O)cc3)CC2)C1 (single isomer, unassigned; enantiomer 2) [Example 121, [3-(Ethoxymethyl)-1,4′-bipiperidin-1′-yl][4-(2-hydroxypropan-2-yl)phenyl]methanone (enantiomer 2)]	5
CC1CCCN(C2CCN(C(=O)c3ccc(C(=O)NCc4ccccc4C(F)(F)F)cc3)CC2)C1 (stereo not drawn) [Example 81, 4-[(3-Methyl-1,4′-bipiperidin-1′-yl)carbonyl]-N-[2-(trifluoromethyl)benzyl]benzamide trifluoroacetic acid salt]	57
CCCCN(C)C(=O)c1ccc(C(=O)N2CCC(N3CCCC(C)C3)CC2)cc1 (stereo not drawn) [Example 35, N-Butyl-N-methyl-4-[(3-methyl-1,4′-bipiperidin-1′-yl)carbonyl]benzamide]	124
COCC1CCCN(C2CCN(C(=O)c3ccc(C(=O)N(C)Cc4c(F)cccc4F)cc3)CC2)C1 (stereo not drawn) [Example 96, N-(2,6-Difluorobenzyl)-4-{[3-(methoxymethyl)-1,4′-bipiperidin-1′-yl]carbonyl}-N-methylbenzamide trifluoroacetic acid salt]	10
O=C(c1ccc(C2(O)COC2)cc1)N1CCC(N2CCCC(OCC3CC3)C2)CC1 (stereo not drawn) [Example 124, [3-(Cyclopropylmethoxy)-1,4′-bipiperidin-1′-yl][4-(3-hydroxyoxetan-3-yl)phenyl]methanone]	39
Cc1nnc(C2CCCN(C3CCN(C(=O)c4ccc(C(C)(C)C)cc4)CC3)C2)o1 (stereo not drawn) [Example 18, (4-tert-Butylphenyl) [3-(5-methyl-1,3,4-oxadiazol-2-yl)-1,4′-bipiperidin-1′-yl]methanone]	129
CCOCc1ccc(C(=O)N2CCC(N3CCCC(C)C3)CC2)cc1 (stereo not drawn) [Example 13, [4-(Ethoxymethyl)phenyl](3-methyl-1,4′-bipiperidin-1′-yl)methanone]	267
C[C@@H]1CCCN(C2CCN(C(=O)c3ccc(C(=O)NCc4cc(Cl)ccn4)cc3)CC2)C1 [Example 90, N-[(4-Chloropyridin-2-yl)methyl]-4-{[(3R)-3-methyl-1,4′-bipiperidin-1′-yl]carbonyl}benzamide]	28
CC1CCCN(C2CCN(C(=O)c3ccc(C(C)(C)C)cc3)CC2)C1 (single isomer, unassigned) [Example 6, (4-tert-Butylphenyl)(3-methyl-1,4′-bipiperidin-1′-yl)methanone, (−)-enantiomer]	91
C[C@@H]1CCCN(C2CCN(C(=O)c3ccc(C(=O)NC(CO)c4ccccc4F)cc3)CC2)C1 (stereo partly drawn) [Example 94, N-[1-(2-Fluorophenyl)-2-hydroxyethyl]-4-{[(3R)-3-methyl-1,4′-bipiperidin-1′-yl]carbonyl}benzamide]	25
CC1CCCN(C2CCN(C(=O)c3ccc(C4(CN(C)C=O)CCC4)cc3)CC2)C1 (stereo not drawn) [Example 67, N-Methyl-N-[(1-{4-[(3-methyl-1,4′-bipiperidin-1′-yl)carbonyl]phenyl}cyclobutyl)methyl]formamide trifluoroacetic acid salt]	51
CCC1CCCN(C2CCN(C(=O)c3ccc(C(C)(C)O)cc3)CC2)C1 (single isomer, unassigned; enantiomer 1) [Example 115, [3-Ethyl-1,4′-bipiperidin-1′-yl][4-(2-hydroxypropan-2-yl)phenyl]methanone (enantiomer 1)]	22
CCC1CCCN(C2CCN(C(=O)c3ccc(C(C)(C)O)cc3)CC2)C1 (stereo not drawn) [Example 114, [3-Ethyl-1,4′-bipiperidin-1′-yl][4-(2-hydroxypropan-2-yl)phenyl]methanone]	72
Cc1n[nH]c(C2CCCN(C3CCN(C(=O)c4ccc(C(C)(C)O)cc4)CC3)C2)n1 (stereo not drawn) [Example 63, [4-(2-Hydroxypropan-2-yl)phenyl][3-(3-methyl-1H-1,2,4-triazol-5-yl)-1,4′-bipiperidin-1′-yl]methanone]	128
CCc1nc(C2CCCN(C3CCN(C(=O)c4ccc(C(C)(C)O)cc4)CC3)C2)n[nH]1 (stereo not drawn) [Example 62, [3-(5-Ethyl-1H-1,2,4-triazol-3-yl)-1,4′-bipiperidin-1′-yl][4-(2-hydroxypropan-2-yl)phenyl]methanone]	154
CC1CCCN(C2CCN(C(=O)c3ccc(C(C)(C)CO)cc3)CC2)C1 (stereo not drawn) [Example 28, 1-{1-[4-(1-Hydroxy-2-methylpropan-2-yl)benzoyl]piperidin-4-yl}-3-methylpiperidine trifluoroacetic acid salt]	156
CC1CCN(C(=O)c2ccc(C(=O)N3CCC(N4CCCC(C)C4)CC3)cc2)C(C)C1 (stereo not drawn) [Example 46, (2,4-dimethylpiperidin-1-yl){4-[(3-methyl-1,4′-bipiperidin-1′-yl)carbonyl]phenyl} methanone]	128
C[C@@H]1CCCN(C2CCN(C(=O)c3ccc(C(=O)NCc4ncccc4F)cc3)CC2)C1 [Example 98, N-[(3-Fluoropyridin-2-yl)methyl]-4-{[(3R)-3-methyl-1,4′-bipiperidin-1′-yl]carbonyl}benzamide]	27
CC(C)(O)c1ccc(C(=O)N2CCC(N3CCCC(COc4cccc(F)c4)C3)CC2)cc1 (stereo not drawn) [Example 108, {3-[(3-Fluorophenoxy)methyl]-1,4′-bipiperidin-1′-yl}[4-(2-hydroxypropan-2-yl)phenyl]methanone]	112
CC1CCCN(C2CCN(C(=O)c3ccc(C(=O)NC(C)(C)C)cc3)CC2)C1 (stereo not drawn) [Example 38, 1-{1-[4-(tert-Butylcarbamoyl)benzoyl]piperidin-4-yl}-3-methylpiperidine trifluoroacetic acid salt]	139
CCOCC1CCCN(C2CCN(C(=O)c3ccc(C(C)(C)O)cc3)CC2)C1 (stereo not drawn) [Example 120, [3-(Ethoxymethyl)-1,4′-bipiperidin-1′-yl][4-(2-hydroxypropan-2-yl)phenyl]methanone]	10
COC(C)(C)c1ccc(C(=O)N2CCC(N3CCCC(COC(C)(C)C)C3)CC2)cc1 (stereo not drawn) [Example 119, [3-(tert-Butoxymethyl)-1,4′-bipiperidin-1′-yl][4-(2-methoxypropan-2-yl)phenyl]methanone]	16
CCCC(C)NC(=O)c1ccc(C(=O)N2CCC(N3CCCC(C)C3)CC2)cc1 (stereo not drawn) [Example 44, 4-[(3-methyl-1,4′-bipiperidin-1′-yl)carbonyl]-N-(pentan-2-yl)benzamide]	55
CCOC(=O)C1CCCN(C2CCN(C(=O)c3ccc(C4(C)COC4)cc3)CC2)C1 (stereo not drawn) [Example 26, Ethyl 1′-[4-(3-methyloxetan-3-yl)benzoyl]-1,4′-bipiperidine-3-carboxylate]	12
CC(C)(C)OCC1CCCN(C2CCN(C(=O)c3ccc(C(C)(C)C)cc3)CC2)C1 (stereo not drawn) [Example 107, [3-(tert-Butoxymethyl)-1,4′-bipiperidin-1′-yl](4-tert-butylphenyl)methanone]	90
COCC1CCCN(C2CCN(C(=O)c3ccc(C(C)(C)O)cc3)CC2)C1 (single isomer, unassigned; enantiomer 2) [Example 123]	7
CCOC(=O)c1ccc(C(=O)N2CCC(N3CCCC(C(=O)OCC)C3)CC2)cc1 (stereo not drawn) [Example 2, 3-(Ethoxycarbonyl)-1-{1-[4-(ethoxycarbonyl)benzoyl]piperidin-4-yl}piperidine trifluoroacetic acid salt]	120
Cc1ncccc1CNC(=O)c1ccc(C(=O)N2CCC(N3CCC[C@@H](C)C3)CC2)cc1 [Example 95, 4-{[(3R)-3-Methyl-1,4′-bipiperidin-1′-yl]carbonyl}-N-[(2-methylpyridin-3-yl)methyl]benzamide]	47
CC(C)(O)c1ccc(C(=O)N2CCC(N3CCCC(COC4CCC4)C3)CC2)cc1 (racemic) [Example 116, {3-[(Cyclobutyloxy)methyl]-1,4′-bipiperidin-1′-yl}[4-(2-hydroxypropan-2-yl)phenyl]methanone (racemate)]	7
CC1CCCN(C2CCN(C(=O)c3ccc(C(=O)NC(C)(C)c4ccccc4Cl)cc3)CC2)C1 (stereo not drawn) [Example 78, N-[2-(2-Chlorophenyl)propan-2-yl]-4-[(3-methyl-1,4′-bipiperidin-1′-yl)carbonyl]benzamide trifluoroacetic acid salt]	24
